What was measured:
Assay in all cases: Fluorescence after 24 hours, serial dilutions in Trypticase Soy broth
Type in all cases: cell-based
[1] = test system: Acinetobacter baumanii (ATCC 19606)
Method: (§1) This experiment was performed to test 7-nitrocoumarin-3-carboxylic acid on sixteen (16) different types of microorganism, including one yeast species.
(§2) A mass of 10 mg of the indicator was dissolved in 4 ml of hot, distilled water and this solution was then added to 96 ml of Trypticase Soy broth. The resultant mixture was sterile-filtered.
(§3) All the microorganisms were grown for 24 hours in Trypticase Soy broth at 35° C. Each culture was then diluted 1,000-fold in Trypticase Soy broth and then serial 10-fold dilutions were made in more Trypticase Soy broth until the test aliquot contained no more microbial cells.
(§4) The resultant dilutions ranged from 10^−3 to 10^−13.
(§5) Fifty microliters of each dilution plus 50 μl of Trypticase Soy broth were added to wells of a microtiter plate with or without 7-nitrocoumarin-3-carboxylic acid.
(§6) The plates were read (T zero) and then incubated at 35° C. before being read again after 24 hours. Two different readings were made at each time point:
(§7) of the fluorescence (excitation at 365 nm and emission at 440 nm), using a Biolite F1 2001 fluorometer (Labtech International Limited), for wells containing 7-nitrocoumarin-3-carboxylic acid.

[2] = test system: Acinetobacter calcoaceticus (ATCC 7844)
Method: as §1, §2, §3, §4, §5, §6, §7

[3] = test system: Acinetobacter haemolyticus (ATCC 17906)
Method: as §1, §2, §3, §4, §5, §6, §7

[4] = test system: Brevundimonas vesicularis (ATCC 11426)
Method: as §1, §2, §3, §4, §5, §6, §7

[5] = test system: Burkholderia cepacia (ATCC 25416)
Method: as §1, §2, §3, §4, §5, §6, §7

[6] = test system: Listeria ivanovii (wild strain)
Method: as §1, §2, §3, §4, §5, §6, §7

[7] = test system: Moraxella nonliquefaciens (ATCC 19975)
Method: as §1, §2, §3, §4, §5, §6, §7

[8] = test system: Pseudomonas fluorescens (ATCC 13525)
Method: as §1, §2, §3, §4, §5, §6, §7

[9] = test system: Shewanella putrefaciens (ATCC 8071)
Method: as §1, §2, §3, §4, §5, §6, §7

[10] = test system: Staphylococcus aureus (NCTC 6571)
Method: as §1, §2, §3, §4, §5, §6, §7

[11] = test system: Streptococcus mitis (NCTC 12261)
Method: as §1, §2, §3, §4, §5, §6, §7

O=C(O)c1cc2ccc([N+](=O)[O-])cc2oc1=O [7-nitrocoumarin-3-carboxylic acid]
Fluorescence reading ([1]; dilution 10^−3): 27016 | Fluorescence reading ([1]; dilution 10^−4): 11695 | Fluorescence reading ([1]; dilution 10^−5): 12525 | Fluorescence reading ([1]; dilution 10^−6): 8912 | Fluorescence reading ([1]; dilution 10^−7): 6953 | Fluorescence reading ([1]; dilution 10^−8): 1651 | Fluorescence reading ([1]; dilution 10^−9): 1705 | Fluorescence reading ([1]; dilution 10^−10): 1718 | Fluorescence reading ([1]; dilution 10^−11): 1678 | Fluorescence reading ([1]; dilution 10^−12): 1687 | Fluorescence reading ([1]; dilution 10^−13): 1660 | Fluorescence reading ([2]; dilution 10^−3): 29657 | Fluorescence reading ([2]; dilution 10^−4): 18288 | Fluorescence reading ([2]; dilution 10^−5): 12311 | Fluorescence reading ([2]; dilution 10^−6): 12223 | Fluorescence reading ([2]; dilution 10^−7): 11635 | Fluorescence reading ([2]; dilution 10^−8): 14858 | Fluorescence reading ([2]; dilution 10^−9): 13353 | Fluorescence reading ([2]; dilution 10^−10): 10862 | Fluorescence reading ([2]; dilution 10^−11): 1712 | Fluorescence reading ([2]; dilution 10^−12): 1654 | Fluorescence reading ([2]; dilution 10^−13): 1699 | Fluorescence reading ([3]; dilution 10^−3): 19231 | Fluorescence reading ([3]; dilution 10^−4): 17403 | Fluorescence reading ([3]; dilution 10^−5): 12614 | Fluorescence reading ([3]; dilution 10^−6): 9727 | Fluorescence reading ([3]; dilution 10^−7): 4236 | Fluorescence reading ([3]; dilution 10^−8): 1981 | Fluorescence reading ([3]; dilution 10^−9): 1938 | Fluorescence reading ([3]; dilution 10^−10): 2005 | Fluorescence reading ([3]; dilution 10^−11): 1947 | Fluorescence reading ([3]; dilution 10^−12): 1904 | Fluorescence reading ([3]; dilution 10^−13): 1938 | Fluorescence reading ([4]; dilution 10^−3): 2543 | Fluorescence reading ([4]; dilution 10^−4): 1962 | Fluorescence reading ([4]; dilution 10^−5): 1861 | Fluorescence reading ([4]; dilution 10^−6): 1941 | Fluorescence reading ([4]; dilution 10^−7): 1928 | Fluorescence reading ([4]; dilution 10^−8): 1889 | Fluorescence reading ([4]; dilution 10^−9): 1929 | Fluorescence reading ([4]; dilution 10^−10): 1910 | Fluorescence reading ([4]; dilution 10^−11): 1938 | Fluorescence reading ([4]; dilution 10^−12): 1919 | Fluorescence reading ([4]; dilution 10^−13): 1877 | Fluorescence reading ([5]; dilution 10^−3): 16978 | Fluorescence reading ([5]; dilution 10^−4): 16719 | Fluorescence reading ([5]; dilution 10^−5): 16808 | Fluorescence reading ([5]; dilution 10^−6): 15800 | Fluorescence reading ([5]; dilution 10^−7): 11973 | Fluorescence reading ([5]; dilution 10^−8): 1969 | Fluorescence reading ([5]; dilution 10^−9): 1996 | Fluorescence reading ([5]; dilution 10^−10): 1950 | Fluorescence reading ([5]; dilution 10^−11): 1925 | Fluorescence reading ([5]; dilution 10^−12): 1965 | Fluorescence reading ([5]; dilution 10^−13): 1914 | Fluorescence reading ([6]; dilution 10^−3): 16246 | Fluorescence reading ([6]; dilution 10^−4): 44910 | Fluorescence reading ([6]; dilution 10^−5): 13185 | Fluorescence reading ([6]; dilution 10^−6): 44865 | Fluorescence reading ([6]; dilution 10^−7): 9251 | Fluorescence reading ([6]; dilution 10^−8): 8137 | Fluorescence reading ([6]; dilution 10^−9): 44425 | Fluorescence reading ([6]; dilution 10^−10): 1663 | Fluorescence reading ([6]; dilution 10^−11): 1651 | Fluorescence reading ([6]; dilution 10^−12): 1691 | Fluorescence reading ([6]; dilution 10^−13): 1682 | Fluorescence reading ([7]; dilution 10^−3): 28160 | Fluorescence reading ([7]; dilution 10^−4): 27889 | Fluorescence reading ([7]; dilution 10^−5): 28439 | Fluorescence reading ([7]; dilution 10^−6): 27648 | Fluorescence reading ([7]; dilution 10^−7): 27385 | Fluorescence reading ([7]; dilution 10^−8): 27196 | Fluorescence reading ([7]; dilution 10^−9): 1974 | Fluorescence reading ([7]; dilution 10^−10): 2057 | Fluorescence reading ([7]; dilution 10^−11): 2002 | Fluorescence reading ([7]; dilution 10^−12): 1956 | Fluorescence reading ([7]; dilution 10^−13): 1907 | Fluorescence reading ([8]; dilution 10^−3): 8985 | Fluorescence reading ([8]; dilution 10^−4): 1774 | Fluorescence reading ([8]; dilution 10^−5): 1657 | Fluorescence reading ([8]; dilution 10^−6): 1625 | Fluorescence reading ([8]; dilution 10^−7): 1716 | Fluorescence reading ([8]; dilution 10^−8): 1690 | Fluorescence reading ([8]; dilution 10^−9): 1736 | Fluorescence reading ([8]; dilution 10^−10): 1666 | Fluorescence reading ([8]; dilution 10^−11): 1691 | Fluorescence reading ([8]; dilution 10^−12): 1666 | Fluorescence reading ([8]; dilution 10^−13): 1624 | Fluorescence reading ([9]; dilution 10^−3): 40277 | Fluorescence reading ([9]; dilution 10^−4): 37262 | Fluorescence reading ([9]; dilution 10^−5): 34890 | Fluorescence reading ([9]; dilution 10^−6): 32034 | Fluorescence reading ([9]; dilution 10^−7): 31793 | Fluorescence reading ([9]; dilution 10^−8): 1911 | Fluorescence reading ([9]; dilution 10^−9): 1902 | Fluorescence reading ([9]; dilution 10^−10): 1972 | Fluorescence reading ([9]; dilution 10^−11): 1917 | Fluorescence reading ([9]; dilution 10^−12): 1935 | Fluorescence reading ([9]; dilution 10^−13): 1990 | Fluorescence reading ([10]; dilution 10^−3): 46607 | Fluorescence reading ([10]; dilution 10^−4): 45207 | Fluorescence reading ([10]; dilution 10^−5): 44544 | Fluorescence reading ([10]; dilution 10^−6): 43559 | Fluorescence reading ([10]; dilution 10^−7): 41437 | Fluorescence reading ([10]; dilution 10^−8): 1678 | Fluorescence reading ([10]; dilution 10^−9): 1666 | Fluorescence reading ([10]; dilution 10^−10): 1666 | Fluorescence reading ([10]; dilution 10^−11): 1620 | Fluorescence reading ([10]; dilution 10^−12): 1706 | Fluorescence reading ([10]; dilution 10^−13): 1669 | Fluorescence reading ([11]; dilution 10^−3): 20988 | Fluorescence reading ([11]; dilution 10^−4): 21541 | Fluorescence reading ([11]; dilution 10^−5): 19899 | Fluorescence reading ([11]; dilution 10^−6): 19619 | Fluorescence reading ([11]; dilution 10^−7): 17228 | Fluorescence reading ([11]; dilution 10^−8): 1682 | Fluorescence reading ([11]; dilution 10^−9): 1676 | Fluorescence reading ([11]; dilution 10^−10): 1691 | Fluorescence reading ([11]; dilution 10^−11): 1636 | Fluorescence reading ([11]; dilution 10^−12): 1644 | Fluorescence reading ([11]; dilution 10^−13): 1669

From patent US20020031795A1, “Nitrocoumarins for detecting all micro-organisms” (priority 1998, published 2002)
